Assay results taken from patent US11673878B2, “Benzazepine derivatives” (OTSUKA PHARMACEUTICAL CO., LTD., priority 2017, dated 2023).

Key:
[1] = biological target: T1, rat vasopressin V2 receptor (Rattus norvegicus, UniProt Q00788); assay: Binding inhibition test for rat V2 receptor (3H-AVP, rV2R-CHO cells); settings: inhibition of 3H-AVP binding, 4° C., 2 hours, read-out: Binding affinity rV2 (IC50)
T1 construct: expressed in transfected cells; host or cells: CHO cells (rV2R-CHO)
Experimental: (§1) Various compounds were studied in binding affinities for vasopressin receptors with an indicator of binding inhibition of rat vasopressin V1a receptor and vasopressin V2 receptor of ^3H-arginine vasopressin (AVP) (NET800, available from PerkinElmer Inc., Life Sciences).
(2) Binding Inhibition Test for Rat V2 Receptor (rV2R)
Rat V2 receptor-expressed CHO cells (rV2R—CHO) were incubated on 10% FBS-containing DMEM/F12 in a 24-well plate, and each cell was washed with D-PBS twice. A reaction solution (D-PBS containing 0.1% BSA and 0.05% sodium azide) comprising a compound in various concentrations (0.3 nM to 100 nM) was added to each well, and a certain amount of ^3H-AVP was added thereto (100-fold dilution). Reactions were carried out at 4° C. for 2 hours on the plate. Then, each well was washed with D-PBS twice and 0.1N NaOH was added to each well. The cells were collected, and the radioactivity of ^3H-AVP was measured with a scintillation counter.
(§2) ^3H-AVP binding rate in the presence of a compound was calculated by the following equation. Binding rate (%)=(B−NSB)/(TB−NSB)×100 (B: Binding amount of ^3H-AVP in the presence of each compound, NSB: Binding amount of ^3H-AVP in the presence of 1 μM of unlabeled AVP, TB: Binding amount of ^3H-AVP in the absence of 1 μM of unlabeled AVP)

[2] = Pharmacokinetics study in mice, single oral dose; type: in vivo; settings: mouse; male ICR mice, single-dose oral administration of 30 mg/kg, plasma
Experimental: A pharmacokinetics (PK) study was performed using male ICR mice to compare the oral absorption properties of the present compounds with tolvaptan. A test compound was suspended in a 1% hydroxypropyl methylcellulose (HPMC) solution to be adjusted to the concentration of 4.5 mg/mL. The present compounds were used as the forms obtained in the above examples (including the amorphous form) for a test compound, or used after spray drying, if needed.
Male ICR mice (7-week old) were freely fed food and water and weighed on an electronic scale. Then, a test compound was orally administered at the dose of 30 mg/kg […]. After the oral administration, blood was collected from the abdominal vena cava under isoflurane anesthesia using a 1 mL heparinized syringe with a 26 G injection needle. Blood was separated by centrifugation at 4° C., 3000 rpm for 10 minutes to give plasma in a supernatant. The plasma concentration of a test compound was measured by LC-MS/MS.
The following PK parameters were calculated using the mean plasma concentrations of unchanged substances obtained from two animals at each time point.
Cmax: Maximum plasma concentration (μg/mL)
tmax: Time-to-maximum plasma concentration (h)
AUCinf: Area under the plasma concentration-time curve from administration to infinite time (μg h/mL)

[3] = Metabolic stability test in human liver microsomes; type: in vitro ADME; settings: pH 7.4; human liver microsomes 1 mg/mL, test compound 1 μmol/L, NADPH and NADH, 37° C., n = 4; read-out: CLint (μL/min/mg) mean ± SD
Experimental: Reaction System and Incubation
According to methods of Obach and Jones, et al. (methods described in R. S. Obach, Drug Metab. Dispos. 1999 (27): 1350-1359 and H. Jones and J. B. Houston, Drug Metab. Dispos. 2004 (32): 973-982), the reaction system shown below was prepared and metabolic stabilities of test compounds (the present compounds and, tolvaptan) were evaluated using the reaction system shown below. Human liver microsomes purchased from Corning Inc. were used. Test compounds were dissolved in DMSO at the concentration of 10 mmol/L and then diluted with acetonitrile to prepare a 100 μmol/L solution for use in the test. The 100 μmol/L solutions were used in the experiment.
Human liver microsome 1 mg/mL
Co-factor (NADPH and NADH) 1 mmol/L each
Magnesium chloride 5 mmol/L
100 mmol/L Potassium phosphate buffer (pH 7.4)
The reaction mixture without co-factors was pre-incubated at 37° C. for 5 minutes, and then the reaction was initiated by the addition of the co-factors. The mixture was incubated for 0, 5, 10, 20, 30, and 60 minutes after the addition of the co-factors. An aliquot of the reaction mixture was removed and added to a methanol solution containing an internal standard (IS) and mixed to terminate the reaction at each predetermined time.
After the reaction was terminated, the mixture was separated by centrifugation and the supernatant was injected into a liquid chromatograph-tandem mass spectrometer (LC-MS/MS) to measure unchanged substances remained in the reaction system. The mass spectrometer was operated in a positive ion mode of the electrospray ionization (ESI) method. Unchanged substances and the IS were detected by multiple reaction monitoring (MRM) transitions using selected precursor and product ions set.
The remaining ratios of test compounds were calculated by the following equation. Remaining ratio=(Peak area ratio of a test compound to IS at t minutes after incubation)÷(Peak area ratio of a test compound to IS at 0 minute)
The slope of X-axis (the incubation time) and Y-axis (logarithm of the remaining ratio) was calculated by a non-linear least square method. Hepatic intrinsic clearance (CLint) was calculated by the following equation. CLint(μL/min/mg)=−(Slope(min^−1))÷1(mg/mL)×1000

[4] = biological target: T2, rat vasopressin V1a receptor (Rattus norvegicus, UniProt P30560); assay: Binding inhibition test for rat V1a receptor (3H-AVP, rat hepatic membrane); settings: inhibition of 3H-AVP binding, rat hepatic membrane V1a receptor fractions, 4° C., 2 hours; read-out: Binding affinity rV1a (IC50)
T2 construct: V1a receptor fractions derived from rat hepatic membrane; from tissue; host or cells: rat liver (hepatic membrane)
Experimental: as §1
(1) Binding Inhibition Test for Rat V1a Receptor (rV1aR)
50 μg of V1a receptor fractions derived from rat hepatic membrane were diluted with a reaction solution (100 mM Tris-HCl (pH 8.0), 0.1% BSA, 5 mM MgCl2, 1 mM EDTA) and added to each well of a 96-well plate. A compound was added to each well in various concentrations (0.3 nM to 100 nM), and ^3H-AVP was added thereto in the range of 1 nM to 3 nM. Reactions were carried out at 4° C. for 2 hours on the plate. Via receptor fractions were collected with a 96-well glass filter (Unifilter GF/B) after the reactions and washed with a washing solution (10 mM Tris-HCl (pH 8.0), 5 mM MgCl2, 1 mM EDTA) three times, and then the radioactivity of ^3H-AVP was measured with a scintillation counter.
as §2

T1 sequence (Q00788 whole entry): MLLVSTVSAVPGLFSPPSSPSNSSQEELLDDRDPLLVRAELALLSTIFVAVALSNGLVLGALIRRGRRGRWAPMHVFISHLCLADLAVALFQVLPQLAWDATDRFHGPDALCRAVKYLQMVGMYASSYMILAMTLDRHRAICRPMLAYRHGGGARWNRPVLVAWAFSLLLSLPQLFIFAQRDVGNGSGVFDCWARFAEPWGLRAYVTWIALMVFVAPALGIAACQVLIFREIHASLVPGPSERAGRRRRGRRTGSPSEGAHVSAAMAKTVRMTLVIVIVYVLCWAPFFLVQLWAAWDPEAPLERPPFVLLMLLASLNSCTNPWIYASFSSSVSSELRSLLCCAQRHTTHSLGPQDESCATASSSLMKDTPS
T2 sequence (P30560 whole entry): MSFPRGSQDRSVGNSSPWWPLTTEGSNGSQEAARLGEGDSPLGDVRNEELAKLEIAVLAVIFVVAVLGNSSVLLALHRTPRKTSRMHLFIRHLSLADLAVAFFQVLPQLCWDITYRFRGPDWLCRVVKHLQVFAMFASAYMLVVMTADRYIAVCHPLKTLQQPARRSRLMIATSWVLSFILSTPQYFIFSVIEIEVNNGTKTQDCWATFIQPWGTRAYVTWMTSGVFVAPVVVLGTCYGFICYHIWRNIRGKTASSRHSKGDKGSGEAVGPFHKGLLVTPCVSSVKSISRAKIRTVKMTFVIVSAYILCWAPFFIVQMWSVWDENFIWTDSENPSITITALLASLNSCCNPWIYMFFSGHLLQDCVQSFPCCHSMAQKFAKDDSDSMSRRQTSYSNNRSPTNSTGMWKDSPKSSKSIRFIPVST

Row | Compound | IC50 [1] [nM] | AUC(0-inf) [2] [ng·h/mL] | Cmax [2] [ng/mL] | Tmax [2] [h] | microsomal CLint at 1 μmol/L [3] [µL/min/mg] | IC50 [4] [nM]
1 | O=C(Nc1ccc(C(=O)N2CCC(F)(F)[C@](O)(CO)c3cc(Cl)ccc32)cn1)c1cccnc1-c1ccccc1 [Example 97, N-{5-[(5R)-7-chloro-4,4-difluoro-5-hydroxy-5-(hydroxymethyl)-2,3,4,5-tetrahydro-1H-1-benzazepine-1-carbonyl]pyridin-2-yl}-2-phenylpyridine-3-carboxamide] | 1.4 | 8310 | 3130 | 1 | 6.98 ± 4.77 | 5.4
2 | O=C(Nc1ccc(C(=O)N2CCC(F)(F)[C@](O)(CO)c3cc(Cl)ccc32)cc1)c1cc(F)ccc1C(F)(F)F [Example 127, N-{4-[(5R)-7-chloro-4,4-difluoro-5-hydroxy-5-(hydroxymethyl)-2,3,4,5-tetrahydro-1H-1-benzazepine-1-carbonyl]phenyl}-5-fluoro-2-(trifluoromethyl)benzamide] | 1.8 | 93800 | 7950 | 1 | < 4 | 7.2
3 | O=C(Nc1ccc(C(=O)N2CCC(F)(F)[C@](O)(CO)c3cc(Cl)ccc32)cc1F)c1cc(F)ccc1C(F)(F)F [Example 132] | 2.3 | 56500 | 3590 | 4 | < 4 | 5.2
4 | O=C(Nc1ccc(C(=O)N2CCC(F)(F)[C@](O)(CO)c3cc(Cl)ccc32)cc1)c1cc(F)ccc1-c1ccccc1 [Example 153, N-{4-[(5R)-7-chloro-4,4-difluoro-5-hydroxy-5-(hydroxymethyl)-2,3,4,5-tetrahydro-1H-1-benzazepine-1-carbonyl]phenyl}-4-fluoro-[1,1′-biphenyl]-2-carboxamide] | 4.5 | 34000 | 5480 | 1 | 1.91 ± 2.22 | 3.6
5 | O=C(Nc1ccc(C(=O)N2CCC(F)(F)[C@](O)(CO)c3cc(Cl)ccc32)cc1F)c1cc(F)ccc1C(F)F [Example 157, N-{4-[(5R)-7-chloro-4,4-difluoro-5-hydroxy-5-(hydroxymethyl)-2,3,4,5-tetrahydro-1H-1-benzazepine-1-carbonyl]-2-fluorophenyl}-2-(difluoromethyl)-5-fluorobenzamide] | 3.2 | 80500 | 6210 | 1 | < 4 | 12
6 | O=C(Nc1ccc(C(=O)N2CCC(F)(F)[C@](O)(CO)c3cc(Cl)ccc32)cn1)c1cc(F)ccc1-c1ccccc1F [Example 165, N-{5-[(5R)-7-chloro-4,4-difluoro-5-hydroxy-5-(hydroxymethyl)-2,3,4,5-tetrahydro-1H-1-benzazepine-1-carbonyl]pyridin-2-yl}-2′,4-difluoro-[1,1′-biphenyl]-2-carboxamide] | 3.4 | 41500 | 7720 | 1 | 3.61 ± 2.43 | 1.7
7 | O=C(Nc1ccc(C(=O)N2CCC(F)(F)[C@](O)(CO)c3cc(Cl)ccc32)cc1F)c1cc(F)ccc1-c1ccccc1F [Example 168, N-{4-[(5R)-7-chloro-4,4-difluoro-5-hydroxy-5-(hydroxymethyl)-2,3,4,5-tetrahydro-1H-1-benzazepine-1-carbonyl]-2-fluorophenyl}-2′,4-difluoro-[1,1′-biphenyl]-2-carboxamide] | 4.7 | 40900 | 7110 | 1 | 7.48 ± 1.5 | 2.2
8 | O=C(Nc1ccc(C(=O)N2CCC(F)(F)[C@](O)(CO)c3cc(Cl)ccc32)cc1)c1cc(F)ccc1-c1ccccc1F [Example 169, N-{4-[(5R)-7-chloro-4,4-difluoro-5-hydroxy-5-(hydroxymethyl)-2,3,4,5-tetrahydro-1H-1-benzazepine-1-carbonyl]phenyl}-2′,4-difluoro-[1,1′-biphenyl]-2-carboxamide] | 3.3 | 32200 | 5650 | 1 | 5.09 ± 0.32 | 1.6
9 | O=C1c2cc(F)ccc2CCN1c1ccc(C(=O)N2CCC(F)(F)[C@](O)(CO)c3cc(Cl)ccc32)cc1 [Example 187, 2-{4-[(5R)-7-chloro-4,4-difluoro-5-hydroxy-5-(hydroxymethyl)-2,3,4,5-tetrahydro-1H-1-benzazepine-1-carbonyl]phenyl}-7-fluoro-1,2,3,4-tetrahydroisoquinolin-1-one] | 0.4 | 5440 | 2040 | 1 | < 4 | 2.6
